Measurements: patent publication US9035021B2, “Somatostatin analogues” (Novartis AG, priority 2001, dated 2015)
*1 amine or outer side, *2 acyl side, *3 side chain or, on linkers, in order; H or OH if unused. Where a SMILES comes first, the peptide text is derived from it. Side-chain parts run from the residue outwards. [ ]: non-standard residue; d: D form. The star is where a group is joined. Ethylenediamine = C(CN[*:2])N[*:1]; Hyp = O=C(O)[C@@H]1C[C@@H](O)CN1; Phg = N[C@H](C(=O)O)c1ccccc1; CO = O=C([*:1])[*:2]; Bn = c1ccc(C*)cc1

Columns and labels:
[1] = system: cultured pituitary cells; test: Inhibition of GH release in vitro from cultured pituitary cells; format: cell-based, rats; settings: rat anterior pituitary cells, three hours, in the presence of 3×10^−10 M growth hormone releasing factor, RIA
Protocol: For example, anterior pituitary glands from adult male rats are cut into small pieces and dispersed using 0.1% trypsin in 20 mM HEPES buffer. The dispersed cells are cultured for four days in MEM (Gibco) supplemented with 5% fetal calf serum, 5% horse serum, 1 mM NaHCO3, 2.5 nM dexamethasone, […] and 20 U/ml Pen/Strep. On the day of the experiment the attached cells are washed two times with Krebs-Ringer medium buffered with 20 mM HEPES and supplemented with 5 mM glucose and 0.2% BSA. Subsequently the cells are incubated for three hours with Compound A in the presence of 3×10^−10 M growth hormone releasing factor. The amount of growth hormone released into the medium is measured by RIA. Compound A has an IC50 of 0.4 nM in this assay.

[2] = target: T1, hsst4 (Homo sapiens, UniProt P31391); test: Binding assay, membranes from cell lines expressing hsst4, [125I-Tyr11]-SRIF-14 radioligand; settings: competition binding
T1 construct: expressed in transfected cells
T1 sequence (P31391 whole entry): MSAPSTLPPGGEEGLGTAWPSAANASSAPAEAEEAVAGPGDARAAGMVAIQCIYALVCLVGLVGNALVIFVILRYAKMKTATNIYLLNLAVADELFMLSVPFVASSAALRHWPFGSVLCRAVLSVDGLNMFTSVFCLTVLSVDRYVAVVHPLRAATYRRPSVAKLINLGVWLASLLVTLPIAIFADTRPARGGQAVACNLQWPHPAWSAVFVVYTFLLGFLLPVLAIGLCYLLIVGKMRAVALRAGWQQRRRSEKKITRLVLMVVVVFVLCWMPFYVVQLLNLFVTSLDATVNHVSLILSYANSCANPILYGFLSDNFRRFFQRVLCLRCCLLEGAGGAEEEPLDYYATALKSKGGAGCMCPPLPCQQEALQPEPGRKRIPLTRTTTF
Protocol: (§1) The experiments are carried out in triplicate.

[3] = target: growth hormone secretagogue receptors (Homo sapiens, UniProt Q92847)
Chain of growth hormone secretagogue receptors (Q92847 whole entry): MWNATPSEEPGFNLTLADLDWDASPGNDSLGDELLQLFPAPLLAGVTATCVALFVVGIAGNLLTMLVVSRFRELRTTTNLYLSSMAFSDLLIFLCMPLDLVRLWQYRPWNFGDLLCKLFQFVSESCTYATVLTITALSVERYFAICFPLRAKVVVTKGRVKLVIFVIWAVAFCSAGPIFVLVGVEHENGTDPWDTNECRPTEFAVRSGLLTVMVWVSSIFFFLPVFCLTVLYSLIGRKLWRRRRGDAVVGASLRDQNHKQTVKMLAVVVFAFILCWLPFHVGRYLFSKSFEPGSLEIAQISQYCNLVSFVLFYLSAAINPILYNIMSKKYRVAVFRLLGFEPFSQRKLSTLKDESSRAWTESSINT
Source text: Such receptors are disclosed by G. Muccioli et al., J. Endocrinol. 1998, 157, 99-106, by H. Ong et al., in Endocrinology 1998, 139, 432-435 and by R. G. Smith et al., Norm. Res., 1999, 3), 1-8. The binding assay to these receptors may be carried out as disclosed in J. Endocrinol. Invest. 24: RC1-RC3, 2001.

[4] = system: carotid artery grafts; test: Carotid artery loop transplantation model; format: in vivo, mice; settings: 50 μg/kg/h s.c. mini-pump, grafts harvested at 30 days, compared with non-treated animals
Protocol: Compound A has also been tested in a carotid artery loop transplantation model using B10.A (2R) (H-2h^2) mice as donor and B10.BR(H-2^k) mice as recipient. In brief, the donor carotid artery is transplanted paratopically as a loop into the recipient's carotid artery by an end-to-side anastomosis. A mini-pump is placed s.c. immediately after transplantation that delivers Compound A at a rate of 50 μg/kg/h. Carotid artery grafts are harvested at 30 days after transplantation to analyse vascular remodeling e.g. by morphometric analysis of Verhoeff elastin stained paraffin sections using a computer-assisted system.

[5] = system: insulin secretion; test: Similar assay for measuring the effect on insulin; parameters: species or system rats; settings: rat, in vivo
[6] = target: T2, hsst5 (Homo sapiens, UniProt P35346); test: Binding assay, membranes from cell lines expressing hsst5, [125I-Tyr11]-SRIF-14 radioligand; settings: competition binding
T2 construct: expressed in transfected cells
T2 sequence (P35346 whole entry): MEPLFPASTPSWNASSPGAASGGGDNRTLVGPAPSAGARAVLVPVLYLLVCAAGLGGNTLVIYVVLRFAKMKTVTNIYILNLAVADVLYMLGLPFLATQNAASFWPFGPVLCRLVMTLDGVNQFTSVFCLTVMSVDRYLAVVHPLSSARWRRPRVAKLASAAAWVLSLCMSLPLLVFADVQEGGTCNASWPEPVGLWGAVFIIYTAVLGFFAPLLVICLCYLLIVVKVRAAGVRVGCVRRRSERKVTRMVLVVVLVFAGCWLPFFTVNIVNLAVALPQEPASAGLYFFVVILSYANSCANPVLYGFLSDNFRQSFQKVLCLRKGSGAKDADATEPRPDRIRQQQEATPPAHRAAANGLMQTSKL
Protocol: as §1

[7] = system: growth hormone release; test: Inhibition of growth hormone (GH) release in rats; format: in vivo; settings: s.c., 6 h, anaesthetized rats
Protocol: Compound A inhibits the release of growth hormone (GH) in rats. Compound A is administered s.c. to anaesthetized rats. Blood is collected after decapitation 1 h after administration of the compound. The duration of action is estimated on the basis of the inhibition of basal GH secretion 6 h after drug treatment. Hormone levels are measured by RIA 1 h and 6 h after treatment. The ID50-value for the inhibition of the hormone secretion is determined graphically (log-probit) for each experiment and the resulting values are averaged logarithmically.

[8] = system: GH; test: Monkey studies, inhibition of GH; format: in vivo
[9] = system: carotid artery neointima; test: Angioplasty, rat model of balloon catheter injury; format: in vivo; settings: 10 μg/kg/h continuous infusion, 14 days after balloon injury
Protocol: Studies on angioplasty are done in the rat model of balloon catheter injury. Balloon catheterization is performed on day 0, essentially as described by Powell et al. (1989). Under Isofluorane anaesthesia, a Fogarty 2F catheter is introduced into the left common carotid artery to obtain a uniform de-endothelialization. The catheter is then removed, a ligature placed around the external carotid to prevent bleeding and the animals allowed to recover. 2 groups of 12 RoRo rats (400 g, approximately 24 weeks old) are used for the study: one control group and one group receiving Compound A and the rats are fully randomized. Compound A is administered by continuous infusion using minipumps at a rate of 10 μg/kg/h starting 2 days before balloon injury […] until the end of the study, 14 days after balloon injury. The rats are then anaesthetized with Isofluorane and perfused with 0.1 M phosphate buffered saline solution (PBS, pH 7.4) and then for 15 min. with 2.5% glutaraldehyde in phosphate buffer (pH 7.4). Carotid arteries are then excised, separated from surrounding tissue and immersed in 0.1 M cacodylate buffer (pH 7.4) containing 7% saccharose and incubated overnight at 4° C. […] The cross-sectional area of the media, neointima and the lumen are evaluated morphometrically by means of an image analysis system (MCID, Toronto, Canada).

[10] = diabetic monkeys
[11] = target: T3, hsst3 (Homo sapiens, UniProt P32745); test: Binding assay, membranes from cell lines expressing hsst3, [125I-Tyr11]-SRIF-14 radioligand; settings: competition binding
T3 construct: expressed in transfected cells
T3 sequence (P32745 whole entry): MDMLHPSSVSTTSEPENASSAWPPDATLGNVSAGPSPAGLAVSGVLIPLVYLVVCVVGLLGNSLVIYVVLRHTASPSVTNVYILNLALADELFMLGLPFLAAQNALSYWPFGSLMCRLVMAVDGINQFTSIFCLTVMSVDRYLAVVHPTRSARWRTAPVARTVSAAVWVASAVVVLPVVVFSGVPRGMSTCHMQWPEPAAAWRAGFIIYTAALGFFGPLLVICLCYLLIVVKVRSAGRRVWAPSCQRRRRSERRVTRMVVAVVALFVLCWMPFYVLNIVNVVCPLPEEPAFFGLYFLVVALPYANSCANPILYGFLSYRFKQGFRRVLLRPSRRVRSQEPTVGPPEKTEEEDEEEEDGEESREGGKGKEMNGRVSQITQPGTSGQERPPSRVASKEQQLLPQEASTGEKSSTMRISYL
Protocol: as §1

[12] = system: heart allograft; test: Heterotopic mouse heart allotransplantation model; format: in vivo
[13] = target: T4, hsst2 (Homo sapiens, UniProt P30874); test: Binding assay, membranes from cell lines expressing hsst2, [125I-Tyr11]-SRIF-14 radioligand; settings: competition binding
T4 construct: expressed in transfected cells
T4 sequence (P30874 whole entry): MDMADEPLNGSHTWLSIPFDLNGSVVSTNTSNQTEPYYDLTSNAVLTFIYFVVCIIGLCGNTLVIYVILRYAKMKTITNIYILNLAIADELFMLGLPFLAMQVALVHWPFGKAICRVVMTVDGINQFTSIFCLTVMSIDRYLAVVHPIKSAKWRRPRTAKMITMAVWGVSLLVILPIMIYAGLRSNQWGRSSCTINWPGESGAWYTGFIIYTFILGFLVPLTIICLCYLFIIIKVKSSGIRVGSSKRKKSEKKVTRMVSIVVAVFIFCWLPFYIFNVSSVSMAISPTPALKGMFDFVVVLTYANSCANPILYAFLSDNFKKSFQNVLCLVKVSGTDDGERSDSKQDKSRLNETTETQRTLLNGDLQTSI
Protocol: as §1

[14] = system: blood vessel formation; test: Angiogenesis test in nude mice (SiHa and MDA MB-231 cells); format: in vivo; settings: dose e.g. 0.01 to 1000 μg/kg s.c.
Protocol: Compound A also has an inhibiting effect on angiogenesis, as indicated in standard tests, e.g. in nude mice. Briefly, tumor cells (0.1 to 10×10^6 in 0.1 ml) (SiHa cells and MDA MB-231 cells prepared as disclosed in Angiogenesis, Ed. by R. Steiner, P. B. Weisz and R. Langer, 1992, Switzerland) are inoculated intracutaneously. Usually two midventral sites/mouse are injected which are located distant from the main ventral skin vessels so that the background vessel count is low. Control groups receive 0.1 ml 0.02% trypan blue in PBS. 10 days following injection, anesthetized mice are sacrificed by CO2 inhalation. The skin is mounted onto a plastic ring (40 mm diameter) for evaluation by an inverted microscope (Zeiss IM) at 12.5- and 25-fold magnification. As a measure of angiogenesis, vessels are photographed and those are counted that are directly connected with the tumor. In control animals those vessels are counted that are connected to a defined area around the injection site. This area corresponds to the mean area of the dermal tumors. The latter is determined by use of a caliper according to the equation 3.14×r^2. Compound A is administered s.c. either on the day of tumor inoculation or 3 days later. Control animals are vehicle-treated.

[15] = Plasma half-life; format: in vivo; settings: read-out: Elimination half-life
Protocol: Compound A has a beneficial plasma half-life. It has an elimination half-life between 15 and 30 hours.

[16] = system: IGF-1 plasma levels; test: IGF-1 plasma levels in vivo in male rats
Protocol: Furthermore, Compound A inhibits IGF-1 plasma levels in vivo as indicated in standard tests using male rats. Briefly, Compound A is administered by osmotic pump implanted s.c. to male rats of a Lewis strain. Blood samples are collected from the retrobulbar plexus using a short anesthesia with e.g. isoflurane.

[17] = target: hsst1 (Homo sapiens, UniProt P30872); test: biochemical
Chain of hsst1 (P30872 whole entry, the tested form may be a part): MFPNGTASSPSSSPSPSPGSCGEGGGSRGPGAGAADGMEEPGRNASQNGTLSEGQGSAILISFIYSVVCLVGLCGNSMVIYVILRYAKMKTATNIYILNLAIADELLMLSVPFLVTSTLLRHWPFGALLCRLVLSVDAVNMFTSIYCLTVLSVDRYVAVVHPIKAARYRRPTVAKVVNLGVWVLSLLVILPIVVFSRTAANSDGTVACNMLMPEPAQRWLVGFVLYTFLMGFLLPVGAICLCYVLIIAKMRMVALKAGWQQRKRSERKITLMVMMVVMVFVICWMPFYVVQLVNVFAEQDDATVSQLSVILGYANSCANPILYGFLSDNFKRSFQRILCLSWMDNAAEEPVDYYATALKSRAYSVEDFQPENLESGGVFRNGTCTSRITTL
Protocol: The binding assays may be carried out as disclosed hereunder using membranes from cell lines expressing selectively and stably hsst1, hsst2, hsst3, hsst4 or hsst5, e.g. CHO or COS cells.
Membranes prepared from hsst selective cell lines, e.g. CHO or COS cells stably expressing hsst1 or hsst2 or hsst3 or hsst4 or hsst5 are incubated in triplicate in a total volume of 300 μl at 22° C. for 30 min with increasing concentrations of [^125I-Tyr^11]-SRIF-14 in 10 mmol/l Hepes buffer (pH 7.6) containing 0.5% BSA. The incubation is terminated by rapid filtration and the filters are counted in a counter. Specific binding is total binding minus non-specific binding in the presence of 1 μmol/l somatostatin-14. The experiments are carried out in triplicate. The affinity constant (KD) and number of binding sites are calculated using appropriate statistics and graphical programs.

[18] = system: kidney allograft; test: Chronic allograft rejection, rat kidney allograft model; format: in vivo; settings: 10 μg/kg/h infusion
Protocol: Chronic Allograft Rejection
The kidney of a male DA (RT1^a) rat is orthotopically transplanted into a male Lewis (RT1^1) recipient. In total 24 animals are transplanted. All animals are treated with cyclosporine A at 7.5 mg/kg/day per os for 14 days starting on the day of transplantation, to prevent acute cellular rejection. Contralateral nephrectomy is not performed. Each experimental group treated with a distinct dose of Compound A or placebo comprises six animals. Starting 14 days after transplantation, the recipient animals are treated up to 112 days by infusion with Compound A or receive placebo. At 14 days after transplantation organ perfusion is measured by MRI. This is repeated at days 53-64 after transplantation and at the end of the experiment. The animals are then autopsied.

In the case of `NCCCC[C@@H]1NC(=O)[C@@H](Cc2c[nH]c3ccccc23)NC(=O)[C@H](c2ccccc2)NC(=O)[C@@H]2C[C@@H](OC(=O)NCCN)CN2C(=O)[C@H](Cc2ccccc2)NC(=O)[C@H](Cc2ccc(OCc3ccccc3)cc2)NC1=O` [Compound A, cyclo[{4-(NH2—C2H4—NH—CO—O—)Pro}-Phg-DTrp-Lys-Tyr(4-Bzl)-Phe]] (cyclo([Hyp]([CO-Ethylenediamine])[Phg][dW]KY(Bn)F)), the IC50 [1] is reported as 0.4 nM, the IC50 [2] is reported as greater than 100 nM and the “Displacement of 125I-Tyr-Ala-hexarelin” value [3] is reported as “displaces ^125I-Tyr-Ala-hexarelin”. The Neointimal formation [4] was “inhibits neointimal formation”, the “Effect on insulin secretion” value [5] was “inhibits insulin secretion” and the IC50 [6] was 0.16 nM. The “Mean basal ID50, inhibition of GH secretion” value [7] was 5.5 µg/kg, the “Inhibition of GH” value [8] was “potent and efficacious inhibition of GH” and the Neointimal thickening [9] was “inhibits neointimal thickening significantly”. For the same compound, the Antidiabetic/insulin-sensitizing effect [10] was “potent antidiabetic/insulin-sensitizing effect”, the IC50 [11] was 1.5 nM and the “Vascular remodelling and graft infiltration” value [12] was “beneficial effects on vascular remodelling as well as in graft infiltration”. For the same compound, the IC50 [13] was 1 nM, the Blood vessel formation [14] was “inhibits blood vessel formation” and the half-life [15] was 15 to 30 h. For the same compound, the “Inhibition of IGF-1 plasma levels” value ([16]; after 14 days of treatment with 10 μg/kg/h, osmotic pump s.c., male Lewis rats) was “more than 60%”, the “Lowering of IGF-1 plasma levels on continuous treatment” value ([16]; rat recipients of aorta or kidney allografts, continuous infusion 10 μg/kg/h up to 126 days) was “significant and persistent lowering of IGF-1 plasma levels” and the IC50 [17] was 9.3 nM. The “Chronic rejection related vascular remodelling and graft infiltration” value [18] was “reduction in chronic rejection related vascular remodelling and graft infiltration”, the IGF-1 levels [18] was “marked and persistent drop of IGF-1 levels” and the “Organ perfusion (MRI)” value [18] was “improved organ perfusion”.
